Measured values: PMC5750217 (Nature Communications, 2018)

Target: T1, wild-type GltPh (Pyrococcus horikoshii, UniProt O59010)
T1 construct: hexa-His (N, cleaved yes); made in house; host or cells: Escherichia coli Top10 (pBAD)
T1 sequence (O59010 1-425): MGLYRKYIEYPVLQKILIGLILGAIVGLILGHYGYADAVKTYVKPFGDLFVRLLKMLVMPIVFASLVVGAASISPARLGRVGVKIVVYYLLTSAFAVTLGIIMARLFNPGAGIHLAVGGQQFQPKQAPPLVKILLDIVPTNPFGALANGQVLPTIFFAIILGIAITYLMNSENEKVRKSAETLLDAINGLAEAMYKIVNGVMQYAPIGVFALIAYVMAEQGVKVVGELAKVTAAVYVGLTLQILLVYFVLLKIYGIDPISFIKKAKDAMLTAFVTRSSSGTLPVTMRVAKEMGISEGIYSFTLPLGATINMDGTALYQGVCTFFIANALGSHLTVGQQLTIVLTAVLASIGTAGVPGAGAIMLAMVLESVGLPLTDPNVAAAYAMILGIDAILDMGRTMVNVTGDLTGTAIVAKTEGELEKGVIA
Test: Proteoliposome transport assay, wild-type GltPh
Format: biochemical
Details: for Transport of radiolabelled substrate into proteoliposomes (in words): 1 µM L-[3H]substrate, Na+ gradient, pH 7.5
Experimental: Mutant and wild-type GltPh with an amino-terminal hexa-His tag were expressed in Escherichia coli Top10 cells (Invitrogen), which were grown in Luria broth medium at 37 °C. Ampicillin was added to a final concentration of 100 μg per ml. To induce expression of GltPh, 0.1% L-arabinose was added when cells reached an optical density of 0.6 at 660 nm, and cells were harvested 4 h post induction. Membranes were isolated, and then solubilised with n-dodecyl-β-D-maltopyranoside (C12M, Anatrace). Histidine containing proteins were purified using Ni^2+−nitrilotriacetic acid resin (Qiagen). The histidine tag was subsequently removed from GltPh by digestion with thrombin (10 U per mg protein) and the protein further purified on a Superdex 200 size exclusion column, where the detergent was exchanged to n-decyl-β-D-maltopyranoside (C10M, Anatrace).
Pure protein was reconstituted into liposomes composed of 75% E. coli Polar Lipid Extract and 25% 1-palmitoyl-2-oleoyl-sn-glycero-3 ^−phopshocholine (Avanti Polar Lipids). Lipids were mixed, dried under nitrogen and resuspended in internal buffer (100 mM KCl, 20 mM HEPES-Tris pH 7.5) using brief sonication (Laboratory Supplies Co.). The lipid suspension was frozen in liquid nitrogen and thawed at room temperature several times. Liposomes were formed by extrusion through 400 nm polycarbonate membranes (Avanti Polar Lipids) and were treated with Triton X-100 at a 0.5:1 (w/w) detergent to lipid ratio prior to the addition of protein at 0.25 μg protein per mg lipid. The protein/lipid mixture was left at room temperature for 30 min before detergent was removed using SM2 Biobeads (BioRad). The mixture was then incubated with gentle agitation, with four consecutive batches of Biobeads (80 mg per ml). Proteoliposomes were concentrated by centrifugation at 150,000 g for 30 min, resuspended at 100 mg lipid per ml and either used immediately or flash-frozen in liquid nitrogen and stored at −80 °C.
Mutant and wild-type GltPh-mediated transport of radiolabelled substrate was assayed by diluting proteoliposomes (100 mg lipid per ml) 133-fold into uptake buffer (100 mM NaCl, 20 mM HEPES-Tris pH 7.5, 1 μM valinomycin, 100 nM–1 µM L-[^3H]substrate) pre-warmed to 30 °C. At each time point, a 200 µl aliquot was removed and diluted 10-fold into ice-cold quench buffer (100 mM LiCl, 20 mM HEPES-Tris pH 7.5), followed by immediate filtration over nitrocellulose filters (0.22 μm pore size, Millipore). The filters were washed with ice-cold quench buffer and assayed for radioactivity using a Trilux beta counter (PerkinElmer). To establish substrate concentration–response curves, extraliposomal L-[^3H]substrate was varied between 500 nM and 100 µM, maintaining NaCl concentrations at 300 mM. For inhibitor concentration–response curves, for wild-type GltPh 100 nM L-[^3H]aspartate, and for mutant GltPh 1 µM L-[^3H]serine, was co-applied with varying inhibitor concentrations. Background levels of uptake were measured by diluting proteoliposomes into internal buffer (100 mM KCl, 20 mM HEPES-Tris pH 7.5) containing 1 µM of valinomycin and the indicated concentrations of L-[^3H]substrate.

Structure (SMILES) | Transport of radiolabelled substrate into proteoliposomes (in words) | IC50 for inhibition of L-[3H]aspartate transport (100 nM L-[3H]aspartate)
N[C@@H](CO)C(=O)O [L-serine] | not transported | 
N[C@@H](CCC(=O)Nc1ccc([N+](=O)[O-])cc1)C(=O)O [GPNA, glutamyl-p-nitroanilide] |  | ineffective
NC(=O)CC[C@H](N)C(=O)O [L-glutamine] | not transported | 
